From patent US20250145609A1, “3-SUBSTITUTED PYRIDAZINE COMPOUNDS AS SMARCA2 AND/OR SMARCA4 DEGRADERS” (Aurigene Oncology Limited, priority 2022, published 2025)

Assays:
SMARCA2 = biological target: T1, SMARCA2 (Homo sapiens, UniProt P51531); assay: SMARCA2 degradation in VCaP cells by Western blot; type: cell-based; conditions: at 100 nM, 16 hours
T1 construct: endogenous in cells; host or cells: VCaP (ATCC CRL-2876)
Protocol: (§1) Example-P2: Determination of SMARCA2 and SMARCA4 Degradation in VCaP Cells by Western Blot
(§2) VCaP (ATCC CRL-2876) was plated in 6 well plates using complete Dulbecco's Modified Eagle's Medium. On the third day, compounds of present invention were added to cells from 10 mM stocks made in DMSO (Sigma Cat no. D2650). Each compound was tested at 100 nM concentration with DMSO not exceeding final percentage of 0.3 in the cells. Cells were incubated with the compound for 16 hours followed by harvesting with 1×RIPA lysis buffer (Thermo Fischer, catalogue number #89900) containing protease inhibitor cocktail (Sigma catalogue number #P-8340). Equal amount of protein was loaded on SDS PAGE gel for electrophoresis. Western blot was carried out for detection of either SMARCA2 (Cell signalling technologies, catalogue number #11966) or SMARCA4 antibody (Cell signalling technologies, catalogue number #52251). Beta-Tubulin antibody (Cell signalling technologies, catalogue number #86298) was used as loading control. Percentage of SMARCA2 or SMARCA4 degradation was calculated by using formula: […]

SMARCA4 = biological target: T2, SMARCA4 (Homo sapiens, UniProt P51532); assay: SMARCA4 degradation in VCaP cells by Western blot; type: cell-based; conditions: at 100 nM; for Percent SMARCA4 degradation at 0.1 µM: VCaP, 16 h; for Percent degradation SMARCA4: 16 hours
T2 construct: endogenous in cells; host or cells: VCaP (ATCC CRL-2876)
T2 sequence (P51532 whole entry): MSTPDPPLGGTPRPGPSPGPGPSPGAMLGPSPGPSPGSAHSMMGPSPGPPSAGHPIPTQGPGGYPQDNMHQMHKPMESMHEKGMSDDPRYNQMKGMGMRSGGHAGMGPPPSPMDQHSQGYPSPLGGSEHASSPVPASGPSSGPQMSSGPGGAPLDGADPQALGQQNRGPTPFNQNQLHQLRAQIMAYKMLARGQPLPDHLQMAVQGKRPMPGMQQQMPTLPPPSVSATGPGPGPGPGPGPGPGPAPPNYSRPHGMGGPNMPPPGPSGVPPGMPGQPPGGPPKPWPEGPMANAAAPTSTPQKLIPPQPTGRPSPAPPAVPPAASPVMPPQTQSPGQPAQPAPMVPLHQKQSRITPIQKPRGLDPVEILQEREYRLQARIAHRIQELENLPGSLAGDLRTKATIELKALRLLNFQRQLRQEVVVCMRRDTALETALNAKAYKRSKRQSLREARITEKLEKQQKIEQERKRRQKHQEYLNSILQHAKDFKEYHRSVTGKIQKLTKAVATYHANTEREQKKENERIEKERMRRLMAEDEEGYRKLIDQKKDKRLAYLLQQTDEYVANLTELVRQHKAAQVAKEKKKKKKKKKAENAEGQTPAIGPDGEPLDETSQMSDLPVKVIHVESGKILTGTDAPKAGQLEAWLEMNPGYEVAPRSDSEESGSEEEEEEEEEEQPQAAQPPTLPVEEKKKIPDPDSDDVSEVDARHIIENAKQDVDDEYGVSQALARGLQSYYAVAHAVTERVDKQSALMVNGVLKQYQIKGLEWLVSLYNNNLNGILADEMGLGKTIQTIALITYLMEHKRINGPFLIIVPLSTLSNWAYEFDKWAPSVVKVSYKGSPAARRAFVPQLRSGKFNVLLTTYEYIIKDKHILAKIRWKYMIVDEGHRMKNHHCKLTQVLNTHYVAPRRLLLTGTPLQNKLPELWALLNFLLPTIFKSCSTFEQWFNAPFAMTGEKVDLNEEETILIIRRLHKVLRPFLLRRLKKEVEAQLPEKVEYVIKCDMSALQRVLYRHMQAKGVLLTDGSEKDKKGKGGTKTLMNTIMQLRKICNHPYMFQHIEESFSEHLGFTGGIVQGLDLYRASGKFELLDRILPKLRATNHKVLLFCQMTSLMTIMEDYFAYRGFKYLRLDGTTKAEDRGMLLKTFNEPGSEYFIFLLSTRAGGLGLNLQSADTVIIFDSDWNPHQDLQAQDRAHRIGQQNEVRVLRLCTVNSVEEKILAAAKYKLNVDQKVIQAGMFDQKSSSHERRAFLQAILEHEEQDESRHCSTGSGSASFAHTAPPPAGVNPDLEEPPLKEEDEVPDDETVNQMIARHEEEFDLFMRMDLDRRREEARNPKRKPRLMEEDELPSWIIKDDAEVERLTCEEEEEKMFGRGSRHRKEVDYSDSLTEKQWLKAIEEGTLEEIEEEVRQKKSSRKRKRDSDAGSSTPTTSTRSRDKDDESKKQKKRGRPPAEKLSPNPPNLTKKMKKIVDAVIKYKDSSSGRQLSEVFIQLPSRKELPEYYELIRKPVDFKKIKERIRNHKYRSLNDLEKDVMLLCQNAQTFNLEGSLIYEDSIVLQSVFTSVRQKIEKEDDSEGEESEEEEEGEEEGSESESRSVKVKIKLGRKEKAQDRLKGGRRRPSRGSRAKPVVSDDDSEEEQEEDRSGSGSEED
Protocol: as §1, §2

T1 sequence (P51531 whole entry): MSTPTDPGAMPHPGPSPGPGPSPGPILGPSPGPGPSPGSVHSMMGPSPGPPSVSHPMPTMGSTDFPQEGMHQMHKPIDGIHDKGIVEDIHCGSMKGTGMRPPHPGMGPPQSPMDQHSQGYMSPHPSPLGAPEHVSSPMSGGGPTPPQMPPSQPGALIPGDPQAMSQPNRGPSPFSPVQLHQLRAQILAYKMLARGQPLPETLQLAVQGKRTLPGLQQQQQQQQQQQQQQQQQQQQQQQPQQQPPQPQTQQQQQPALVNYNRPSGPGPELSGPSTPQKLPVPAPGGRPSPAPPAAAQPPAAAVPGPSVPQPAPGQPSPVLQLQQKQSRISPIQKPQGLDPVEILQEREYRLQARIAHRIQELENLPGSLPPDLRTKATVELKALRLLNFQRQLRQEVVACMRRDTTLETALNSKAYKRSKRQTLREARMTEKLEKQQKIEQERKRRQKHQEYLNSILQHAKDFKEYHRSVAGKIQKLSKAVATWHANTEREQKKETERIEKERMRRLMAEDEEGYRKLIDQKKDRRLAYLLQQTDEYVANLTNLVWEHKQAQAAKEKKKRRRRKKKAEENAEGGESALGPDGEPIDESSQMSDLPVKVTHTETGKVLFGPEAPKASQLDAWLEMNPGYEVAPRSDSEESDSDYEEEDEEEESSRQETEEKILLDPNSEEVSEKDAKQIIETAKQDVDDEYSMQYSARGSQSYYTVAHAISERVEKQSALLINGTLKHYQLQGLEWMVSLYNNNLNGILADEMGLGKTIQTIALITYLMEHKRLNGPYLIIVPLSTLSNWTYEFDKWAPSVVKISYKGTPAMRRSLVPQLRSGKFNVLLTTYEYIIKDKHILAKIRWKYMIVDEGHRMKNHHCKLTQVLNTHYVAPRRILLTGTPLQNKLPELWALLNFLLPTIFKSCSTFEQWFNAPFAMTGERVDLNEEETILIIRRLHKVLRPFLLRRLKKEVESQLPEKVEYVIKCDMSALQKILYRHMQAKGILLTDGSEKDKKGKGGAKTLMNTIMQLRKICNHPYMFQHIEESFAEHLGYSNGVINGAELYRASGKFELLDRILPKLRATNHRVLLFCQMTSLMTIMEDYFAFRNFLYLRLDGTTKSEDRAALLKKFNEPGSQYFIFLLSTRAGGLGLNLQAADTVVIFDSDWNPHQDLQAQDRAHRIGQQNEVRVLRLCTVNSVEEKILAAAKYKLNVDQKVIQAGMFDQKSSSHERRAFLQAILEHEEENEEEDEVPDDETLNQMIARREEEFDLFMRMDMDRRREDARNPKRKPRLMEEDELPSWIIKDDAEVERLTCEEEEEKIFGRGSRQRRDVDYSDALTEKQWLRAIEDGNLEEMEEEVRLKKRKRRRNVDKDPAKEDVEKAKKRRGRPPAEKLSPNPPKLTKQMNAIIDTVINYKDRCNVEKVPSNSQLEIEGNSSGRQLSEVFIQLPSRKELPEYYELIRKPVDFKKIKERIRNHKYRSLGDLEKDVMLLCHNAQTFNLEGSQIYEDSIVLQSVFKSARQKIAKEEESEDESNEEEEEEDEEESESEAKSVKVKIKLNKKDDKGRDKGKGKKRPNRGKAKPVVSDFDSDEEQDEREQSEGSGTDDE

How did the “Percent degradation SMARCA2” value (SMARCA2) turn out when Cc1ncsc1-c1ccc([C@H](C)NC(=O)[C@@H]2C[C@@H](O)CN2C(=O)[C@@H](NC(=O)C(C)N2CCC(c3ccc(-c4cc(-c5ccccc5O)nnc4N)cc3)CC2)C(C)(C)C)cc1 (single isomer, unassigned) [Compound 33] was run?
Its value is 42%.

And the Percent SMARCA4 degradation at 0.1 µM (SMARCA4)?
Its Percent SMARCA4 degradation at 0.1 µM is 0%.

Which “Percent degradation SMARCA2” value (SMARCA2) does the source give for Cc1ncsc1-c1ccc([C@H](C)NC(=O)[C@@H]2C[C@@H](O)CN2C(=O)[C@@H](NC(=O)CN2CCC(c3ccc(-c4cc(-c5ccccc5O)nnc4N)cc3)CC2C)C(C)(C)C)cc1 (single isomer, unassigned) [Compound 37] here?
The value was 100%.

And the “Percent degradation SMARCA4” value (SMARCA4)?
Its value is 97%.

How did the “Percent degradation SMARCA2” value (SMARCA2) turn out when Cc1ncsc1-c1ccc([C@H](C)NC(=O)[C@@H]2C[C@@H](O)CN2C(=O)[C@@H](NC(=O)C2CCC(c3ccc(-c4cc(-c5ccccc5O)nnc4N)cc3)CC2)C(C)(C)C)cc1 (single isomer, unassigned) [Compound 41] was run?
The value was 92%.

What about the “Percent degradation SMARCA4” value (SMARCA4) of the same compound?
Its value is 52%.

Cc1ncsc1-c1ccc([C@H](C)NC(=O)[C@@H]2C[C@@H](O)CN2C(=O)[C@@H](NC(=O)CC2CCC(c3ccc(-c4cc(-c5ccccc5O)nnc4N)cc3)CC2)C(C)(C)C)cc1 (single isomer, unassigned) [Compound 45] was tested. Which “Percent degradation SMARCA2” value (SMARCA2) did it give?
The value was 97%.

What about the “Percent degradation SMARCA4” value (SMARCA4) of the same compound?
Its value is 92%.

Cc1ncsc1-c1ccc([C@H](C)NC(=O)[C@@H]2C[C@@H](O)CN2C(=O)C(c2cc(-c3ccc(-c4cc(-c5ccccc5O)nnc4N)cc3)no2)C(C)C)cc1 (stereo partly drawn) [Compound 4, (2S,4R)-1-(2-(3-(4-(3-amino-6-(2-hydroxyphenyl)pyridazin-4-yl)phenyl)isoxazol-5-yl)-3-methylbutanoyl)-4-hydroxy-N—((S)-1-(4-(4-methylthiazol-5-yl)phenyl)ethyl)pyrrolidine-2-carboxamide] was tested. Which “Percent degradation SMARCA2” value (SMARCA2) did it give?
Its value is 98%.

What about the Percent SMARCA4 degradation at 0.1 µM (SMARCA4) of the same compound?
The Percent SMARCA4 degradation at 0.1 µM was 11%.

What does the source list for Cc1ncsc1-c1ccc([C@H](C)NC(=O)[C@@H]2C[C@@H](O)CN2C(=O)[C@H](c2cc(-c3ccc(-c4cc(-c5ccccc5O)nnc4N)cc3)no2)C(C)C)cc1 [Compound 5, (2S,4R)-1-((S)-2-(3-(4-(3-amino-6-(2-hydroxyphenyl)pyridazin-4-yl)phenyl)isoxazol-5-yl)-3-methylbutanoyl)-4-hydroxy-N—((S)-1-(4-(4-methylthiazol-5-yl)phenyl)ethyl)pyrrolidine-2-carboxamide]?
Percent degradation SMARCA2 (SMARCA2): 57%; Percent SMARCA4 degradation at 0.1 µM (SMARCA4): 62%

What does the source list for Cc1ncsc1-c1ccc([C@H](C)NC(=O)[C@@H]2C[C@@H](O)CN2C(=O)C(c2cc(-c3ccc(-c4cc(-c5ccccc5C(F)F)nnc4N)cc3)no2)C(C)C)cc1 (stereo partly drawn) [Compound 8, (2S,4R)-1-(2-(3-(4-(3-amino-6-(2-(difluoromethyl)phenyl)pyridazin-4-yl)phenyl)isoxazol-5-yl)-3-methylbutanoyl)-4-hydroxy-N-((S)-1-(4-(4-methylthiazol-5-yl)phenyl)ethyl)pyrrolidine-2-carboxamide]?
Percent degradation SMARCA2 (SMARCA2): 0%; Percent SMARCA4 degradation at 0.1 µM (SMARCA4): 18%

What does the source list for Cc1ncsc1-c1ccc([C@H](C)NC(=O)[C@@H]2C[C@@H](O)CN2C(=O)C(c2cc(-c3ccc(-c4cc(-c5ccccc5F)nnc4N)cc3)no2)C(C)C)cc1 (stereo partly drawn) [Compound 9, (2S,4R)-1-(2-(3-(4-(3-amino-6-(2-fluorophenyl)pyridazin-4-yl)phenyl)isoxazol-5-yl)-3-methylbutanoyl)-4-hydroxy-N-((S)-1-(4-(4-methylthiazol-5-yl)phenyl)ethyl)pyrrolidine-2-carboxamide]?
Percent degradation SMARCA2 (SMARCA2): 30%; Percent SMARCA4 degradation at 0.1 µM (SMARCA4): 62%

Which results are given for Cc1ncsc1-c1ccc([C@H](C)NC(=O)[C@@H]2C[C@@H](O)CN2C(=O)[C@@H](NC(=O)CN2CCN(c3ccc(-c4cc(Cl)nnc4N)cc3)CC2)C(C)(C)C)cc1 [Compound 13, (2S,4R)-1-((S)-2-(2-(4-(4-(3-amino-6-chloropyridazin-4-yl)phenyl)piperazin-1-yl)acetamido)-3,3-dimethylbutanoyl)-4-hydroxy-N—((S)-1-(4-(4-methylthiazol-5-yl)phenyl)ethyl)pyrrolidine-2-carboxamide]?
Percent degradation SMARCA2 (SMARCA2): 27%; Percent SMARCA4 degradation at 0.1 µM (SMARCA4): 38%

Which results are given for COc1ncccc1-c1cc(-c2ccc(N3CCN(CC(=O)N[C@H](C(=O)N4C[C@H](O)C[C@H]4C(=O)N[C@@H](C)c4ccc(-c5scnc5C)cc4)C(C)(C)C)CC3)cc2)c(N)nn1 [Compound 15, (2S,4R)-1-((S)-2-(2-(4-(4-(3-amino-6-(2-methoxypyridin-3-yl)pyridazin-4-yl)phenyl)piperazin-1-yl)acetamido)-3,3-dimethylbutanoyl)-4-hydroxy-N—((S)-1-(4-(4-methylthiazol-5-yl)phenyl)ethyl)pyrrolidine-2-carboxamide]?
Percent degradation SMARCA2 (SMARCA2): 8%; Percent SMARCA4 degradation at 0.1 µM (SMARCA4): 16%

How did the “Percent degradation SMARCA2” value (SMARCA2) turn out when Cc1ncsc1-c1ccc([C@H](C)NC(=O)[C@@H]2C[C@@H](O)CN2C(=O)C(c2cc(-c3ccc(-c4cc(-c5ccc[nH]c5=O)nnc4N)cc3)no2)C(C)C)cc1 (stereo partly drawn) [Compound 17] was run?
Its value is 7%.

What about the “Percent degradation SMARCA4” value (SMARCA4) of the same compound?
The value was 35%.

What does the source list for Cc1ncsc1-c1ccc([C@H](C)NC(=O)[C@@H]2C[C@@H](O)CN2C(=O)[C@@H](NC(=O)CCN2CCN(c3ccc(-c4cc(-c5ccccc5O)nnc4N)cc3)CC2)C(C)(C)C)cc1 [Compound 18, (2S,4R)-1-((S)-2-(3-(4-(4-(3-amino-6-(2-hydroxyphenyl)pyridazin-4-yl)phenyl)piperazin-1-yl)propanamido)-3,3-dimethylbutanoyl)-4-hydroxy-N—((S)-1-(4-(4-methylthiazol-5-yl)phenyl)ethyl)pyrrolidine-2-carboxamide]?
Percent degradation SMARCA2 (SMARCA2): 98%; Percent SMARCA4 degradation at 0.1 µM (SMARCA4): 93%

For Cc1ncsc1-c1ccc([C@H](C)NC(=O)[C@@H]2C[C@@H](O)CN2C(=O)[C@@H](NC(=O)CCC#Cc2ccc(-c3cc(-c4ccccc4O)nnc3N)cc2)C(C)(C)C)cc1 [Compound 20, (2S,4R)-1-((S)-2-(5-(4-(3-amino-6-(2-hydroxyphenyl)pyridazin-4-yl)phenyl)pent-4-ynamido)-3,3-dimethylbutanoyl)-4-hydroxy-N-((S)-1-(4-(4-methylthiazol-5-yl)phenyl)ethyl)pyrrolidine-2-carboxamide], which “Percent degradation SMARCA2” value (SMARCA2) is on record?
Its value is 98%.

And the Percent SMARCA4 degradation at 0.1 µM (SMARCA4)?
Its Percent SMARCA4 degradation at 0.1 µM is 97%.

Which results are given for Cc1ncsc1-c1ccc([C@H](C)NC(=O)[C@@H]2C[C@@H](O)CN2C(=O)[C@@H](NC(=O)CC#Cc2ccc(-c3cc(Cl)nnc3N)cc2)C(C)(C)C)cc1 [Compound 22, (2S,4R)-1-((S)-2-(4-(4-(3-amino-6-chloropyridazin-4-yl)phenyl)but-3-ynamido)-3,3-dimethylbutanoyl)-4-hydroxy-N-((S)-1-(4-(4-methylthiazol-5-yl)phenyl)ethyl)pyrrolidine-2-carboxamide]?
Percent degradation SMARCA2 (SMARCA2): 2%; Percent SMARCA4 degradation at 0.1 µM (SMARCA4): 7%

Cc1ncsc1-c1ccc([C@H](C)NC(=O)[C@@H]2C[C@@H](O)CN2C(=O)[C@@H](NC(=O)CCCC#Cc2ccc(-c3cc(-c4cc(F)ccc4O)nnc3N)cc2)C(C)(C)C)cc1 [Compound 23, (2S,4R)-1-((S)-2-(6-(4-(3-amino-6-(5-fluoro-2-hydroxyphenyl)pyridazin-4-yl)phenyl)hex-5-ynamido)-3,3-dimethylbutanoyl)-4-hydroxy-N-((S)-1-(4-(4-methylthiazol-5-yl)phenyl)ethyl)pyrrolidine-2-carboxamide] was tested. Which “Percent degradation SMARCA2” value (SMARCA2) did it give?
Its value is 82%.

And the Percent SMARCA4 degradation at 0.1 µM (SMARCA4)?
Its Percent SMARCA4 degradation at 0.1 µM is 49%.

With Cc1ncsc1-c1ccc([C@H](C)NC(=O)[C@@H]2C[C@@H](O)CN2C(=O)[C@@H](NC(=O)CN2CCN(c3ccc(-c4cc(-c5ccccc5F)nnc4N)cc3)CC2)C(C)(C)C)cc1 [Compound 27, (2S,4R)-1-((S)-2-(2-(4-(4-(3-amino-6-(2-fluorophenyl)pyridazin-4-yl)phenyl)piperazin-1-yl)acetamido)-3,3-dimethylbutanoyl)-4-hydroxy-N—((S)-1-(4-(4-methylthiazol-5-yl)phenyl)ethyl)pyrrolidine-2-carboxamide] as the compound, how does the “Percent degradation SMARCA2” value (SMARCA2) read?
The value was 59%.

And the Percent SMARCA4 degradation at 0.1 µM (SMARCA4)?
The Percent SMARCA4 degradation at 0.1 µM was 47%.

With Cc1ncsc1-c1ccc([C@H](C)NC(=O)[C@@H]2C[C@@H](O)CN2C(=O)[C@@H](NC(=O)CN2CCC(c3cccc(-c4cc(-c5ccccc5O)nnc4N)c3)CC2)C(C)(C)C)cc1 [Compound 46, (2S,4R)-1-((S)-2-(2-(4-(3-(3-amino-6-(2-hydroxyphenyl)pyridazin-4-yl)phenyl)piperidin-1-yl)acetamido)-3,3-dimethylbutanoyl)-4-hydroxy-N-((S)-1-(4-(4-methylthiazol-5-yl)phenyl)ethyl)pyrrolidine-2-carboxamide] as the compound, how does the “Percent degradation SMARCA2” value (SMARCA2) read?
Its value is 98%.

What about the Percent SMARCA4 degradation at 0.1 µM (SMARCA4) of the same compound?
The Percent SMARCA4 degradation at 0.1 µM was 96%.

How did the “Percent degradation SMARCA2” value (SMARCA2) turn out when Cc1ncsc1-c1ccc([C@H](C)NC(=O)[C@@H]2C[C@@H](O)CN2C(=O)[C@@H](NC(=O)C2CCN(c3ccc(-c4cc(-c5ccccc5O)nnc4N)cc3)CC2)C(C)(C)C)cc1 [Compound 47, 1-(4-(3-amino-6-(2-hydroxyphenyl)pyridazin-4-yl)phenyl)-N-((S)-1-((2S,4R)-4-hydroxy-2-(((S)-1-(4-(4-methylthiazol-5-yl)phenyl)ethyl)carbamoyl)pyrrolidin-1-yl)-3,3-dimethyl-1-oxobutan-2-yl)piperidine-4-carboxamide] was run?
The value was 99%.

And the Percent SMARCA4 degradation at 0.1 µM (SMARCA4)?
The Percent SMARCA4 degradation at 0.1 µM was 95%.
